Tests used:
[1] = target: Melanocortin receptor 3 (Homo sapiens, UniProt P41968); assay: Displacement of [125I]NDP-MSH from human recombinant MC3 receptor expressed in Sf9 cells
[2] = target: Melanocyte-stimulating hormone receptor (Mus musculus, UniProt Q01727); assay: Displacement of [125I]NDP-MSH from MC1 receptor in mouse B16 cells; assay type: cell-based
[3] = target: Melanocortin receptor 5 (Homo sapiens, UniProt P33032); assay: Displacement of [125I]NDP-MSH from human recombinant MC5 receptor expressed in Sf9 cells
[4] = target: Melanocortin receptor 4 (Homo sapiens, UniProt P32245); assay: Displacement of [125I]NDP-MSH from human recombinant MC4 receptor expressed in Sf9 cells
Melanocortin receptor 4, sequence (P32245 whole entry): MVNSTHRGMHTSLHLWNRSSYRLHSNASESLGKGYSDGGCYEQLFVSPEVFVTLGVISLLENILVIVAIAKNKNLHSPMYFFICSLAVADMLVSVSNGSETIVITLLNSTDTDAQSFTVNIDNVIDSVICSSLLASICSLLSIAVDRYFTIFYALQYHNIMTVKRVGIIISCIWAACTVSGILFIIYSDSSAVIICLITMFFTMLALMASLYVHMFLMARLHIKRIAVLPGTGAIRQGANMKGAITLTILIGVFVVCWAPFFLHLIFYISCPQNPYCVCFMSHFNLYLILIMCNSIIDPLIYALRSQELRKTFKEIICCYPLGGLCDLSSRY

Melanocyte-stimulating hormone receptor, sequence (Q01727 whole entry): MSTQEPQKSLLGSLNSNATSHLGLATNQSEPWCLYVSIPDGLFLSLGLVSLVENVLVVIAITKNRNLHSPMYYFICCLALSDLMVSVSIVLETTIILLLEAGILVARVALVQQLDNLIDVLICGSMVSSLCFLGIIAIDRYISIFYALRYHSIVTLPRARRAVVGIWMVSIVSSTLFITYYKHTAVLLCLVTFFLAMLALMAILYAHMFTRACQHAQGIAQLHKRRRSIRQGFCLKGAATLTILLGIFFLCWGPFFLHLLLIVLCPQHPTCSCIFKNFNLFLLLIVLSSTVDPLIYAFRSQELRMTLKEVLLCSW
Melanocortin receptor 3, sequence (P41968 whole entry): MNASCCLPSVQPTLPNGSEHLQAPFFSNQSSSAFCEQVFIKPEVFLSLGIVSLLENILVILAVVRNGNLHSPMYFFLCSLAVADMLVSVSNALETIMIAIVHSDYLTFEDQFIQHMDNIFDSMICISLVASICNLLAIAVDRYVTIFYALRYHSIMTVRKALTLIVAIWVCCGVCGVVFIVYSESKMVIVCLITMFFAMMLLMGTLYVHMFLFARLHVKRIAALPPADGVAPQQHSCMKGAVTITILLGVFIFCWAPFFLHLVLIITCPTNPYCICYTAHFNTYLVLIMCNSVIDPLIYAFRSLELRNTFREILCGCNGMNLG
Melanocortin receptor 5, sequence (P33032 whole entry): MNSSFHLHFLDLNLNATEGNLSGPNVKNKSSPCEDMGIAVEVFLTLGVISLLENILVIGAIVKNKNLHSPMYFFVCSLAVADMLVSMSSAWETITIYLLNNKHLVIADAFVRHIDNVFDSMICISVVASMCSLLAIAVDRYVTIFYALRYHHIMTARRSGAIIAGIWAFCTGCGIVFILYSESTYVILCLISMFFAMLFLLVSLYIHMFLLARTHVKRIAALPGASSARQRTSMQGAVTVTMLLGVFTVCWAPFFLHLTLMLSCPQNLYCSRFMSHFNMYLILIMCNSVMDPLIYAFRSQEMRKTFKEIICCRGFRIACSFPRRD

| Ki [1] [µM] | Ki [2] [µM] | Ki [3] [µM] | Ki [4] [µM] | Structure (SMILES) |
| --- | --- | --- | --- | --- |
| 62 | 1.6 | 42 | 3.7 | NC1CCC(CC2CCC(N(C/C(Cl)=C/c3ccccc3)C(=O)COc3ccc4ccccc4c3)CC2)CC1 (stereo in doubt; form 8) |
| 52 | 6.4 | 22 | 16 | NCCCN1CCN(CCCN(Cc2ccccc2)C(=O)CCCc2c[nH]c3ccccc23)CC1 |
| 106 | 32 | 159 | 87 | NCCCCCN(Cc1ccccc1)C(=O)[C@H](N)Cc1c[nH]c2ccccc12 |
| 28 | 4 | 3.2 | 3.8 | NCCCCCCCN(Cc1ccccc1)C(=O)CCCc1c[nH]c2ccccc12 |
| 204 | 8.3 | 8.3 | 179 | N=C(N)NCCN(Cc1ccc2ccccc2c1)C(=O)CCCc1c[nH]c2ccccc12 |
| 16 | 4 | 29 | 42 | NCCN(C(=O)Cc1c[nH]c2ccccc12)C1CCc2ccccc2C1 (stereo not drawn) |
| 62 | 12 | 555 | 116 | N[C@@H]1CCCC[C@H]1N(C/C=C/c1ccccc1)C(=O)CCCc1c[nH]c2ccccc12 |
| 30 | 3.3 | 18 | 5.7 | NC1CCCC(N(Cc2ccccc2)C(=O)CCCc2c[nH]c3ccccc23)C1 (stereo not drawn) |
| 12 | 1.6 | 6.5 | 2 | N#Cc1ccc(CN(C(=O)CCCc2c[nH]c3ccccc23)C2CCC(CC3CCC(N)CC3)CC2)cc1 (stereo in doubt; form 1) |
| 121 | 1.2 | 15 | 2.3 | Cc1ccccc1CN(C(=O)CCCc1c[nH]c2ccccc12)C1CCC(CC2CCC(N)CC2)CC1 (stereo not drawn) |
| 7.4 | 1 | 4.3 | 6.8 | NCCCN(C/C(Cl)=C/c1ccccc1)C(=O)C(=O)c1c[nH]c2ccccc12 |
| 22 | 3.5 | 8.7 | 4.7 | C/C(=C/c1ccccc1)CN(CCCCCN)C(=O)CCCc1c[nH]c2ccccc12 |
| 16 | 2.9 | 9.5 | 2.1 | CCOc1cc(CN(C(=O)CCCc2c[nH]c3ccccc23)C2CCC(CC3CCC(N)CC3)CC2)ccc1OC (stereo not drawn) |
| 27 | 3.7 | 20 | 11 | C/C(=C\c1ccccc1)CN(CCCCCCN)C(=O)c1cc2cc(O)ccc2[nH]1 |
| 22 | 1.3 | 12 | 3 | Cc1cccc(CN(C(=O)CCCc2c[nH]c3ccccc23)C2CCC(CC3CCC(N)CC3)CC2)c1 (stereo not drawn) |
| 59 | 2.7 | 37 | 7.3 | N[C@H]1CC[C@H](NC(=O)NC2CCCC(N(Cc3ccccc3)C(=O)CCCc3c[nH]c4ccccc34)C2)CC1 (stereo partly drawn) |
| 22 | 1.9 | 6.7 | 3.5 | NC1CCC(CC2CCC(N(C/C(Cl)=C/c3ccccc3)C(=O)COc3ccc4ccccc4c3)CC2)CC1 (stereo in doubt; form 5) |
| 228 | 35 | 28 | 150 | N=C(N)NCCCN(Cc1ccc2ccccc2c1)C(=O)Cc1c[nH]c2ccccc12 |
| 131 | 4.8 | 23 | 74 | NCCCN(C(=O)c1c[nH]c2ccccc12)C1CCc2ccccc2C1 (stereo not drawn) |
| 11 | 4.4 | 19 | 11 | CC(c1ccc2ccccc2c1)N(CCN)C(=O)Cc1c[nH]c2ccccc12 (stereo not drawn) |
| 36 | 2.3 | 2.1 | 3.7 | NCCCCCCN(Cc1ccccc1)C(=O)CCCc1c(Cc2ccc(O)cc2)[nH]c2ccccc12 |
| 43 | 34 | 54 | 44 | NCCCCCN(Cc1ccccc1)C(=O)[C@@H](N)Cc1c[nH]c2ccccc12 |
| 9.1 | 1.8 | 58 | 6.2 | C/C(=C\c1ccccc1)CN(CCCN)C(=O)C(=O)c1c[nH]c2ccccc12 |
| 55 | 1 | 36 | 1.5 | NC1CCC(CC2CCC(N(Cc3ccccc3F)C(=O)CCCc3c(Cc4ccc(O)cc4)[nH]c4ccccc34)CC2)CC1 (stereo not drawn) |
| 31 | 1.8 | 52 | 11 | NC1CCCC(NC(=O)N[C@H]2CC[C@H](N(Cc3ccccc3)C(=O)CCCc3c[nH]c4ccccc34)CC2)C1 (stereo partly drawn) |
| 16 | 2.7 | 7.7 | 9.2 | NC1CCC(CC2CCC(N(C/C=C/c3ccccc3)C(=O)CCCc3c[nH]c4ccccc34)CC2)CC1 (stereo not drawn) |

| Ki [1] [µM] | Ki [2] [µM] | Ki [3] [µM] | Ki [4] [µM] | Structure (SMILES) |
| --- | --- | --- | --- | --- |
| 45 | 3.1 | 16 | 18 | NC1CCCC(NC(=O)NC2CCCC(N(C/C(Cl)=C/c3ccccc3)C(=O)CCCc3c[nH]c4ccccc34)C2)C1 (stereo not drawn) |
| 31 | 1.6 | 5 | 4.1 | COc1ccccc1/C=C/CN(C(=O)CCCc1c[nH]c2ccccc12)C1CCC(CC2CCC(N)CC2)CC1 (stereo in doubt; form 2) |
| 9.6 | 5.4 | 24 | 4 | N=C(N)NC1CCC(CC2CCC(N(C/C(Cl)=C/c3ccccc3)C(=O)CCCc3c[nH]c4ccccc34)CC2)CC1 (stereo in doubt; form 1) |
| 104 | 7.4 | 55 | 9.8 | CC(c1csc2ccccc12)N(CCCN)C(=O)CCCc1c[nH]c2ccccc12 (stereo not drawn) |
| 10 | 2.8 | 10 | 3.2 | N[C@H]1CC[C@H](N(C/C(Cl)=C/c2ccccc2)C(=O)CCCc2c[nH]c3ccccc23)CC1 |
| 29 | 2.8 | 10 | 2.1 | NC1CCCC(N(C/C(Cl)=C/c2ccccc2)C(=O)CCCc2c[nH]c3ccccc23)C1 (stereo not drawn) |
| 45 | 3.1 | 8.4 | 6.8 | N[C@H]1CC[C@H](C[C@H]2CC[C@H](N(C/C(Cl)=C/c3ccccc3)C(=O)CCCc3c[nH]c4ccccc34)CC2)CC1 |
| 30 | 21 | 33 | 164 | NCCCN(CCc1ccccc1)C(=O)CCCc1c[nH]c2ccccc12 |
| 38 | 5.5 | 23 | 12 | NCCCCCN(Cc1ccc2c(c1)OCO2)C(=O)CCCc1c[nH]c2ccccc12 |
| 13 | 2.2 | 4.8 | 3.1 | CC1CC(CC2CCC(N(C/C(Cl)=C/c3ccccc3)C(=O)CCCc3c[nH]c4ccccc34)C(C)C2)CCC1N (stereo in doubt; form 2) |
| 46 | 2.9 | 31 | 9.8 | CC(Cc1ccccc1)CN(CCCCCCN)C(=O)c1cc2cc(O)ccc2[nH]1 (stereo not drawn) |
| 33 | 1.6 | 11 | 2.5 | NCC1CCC(CN(C/C(Cl)=C/c2ccccc2)C(=O)CCCc2c[nH]c3ccccc23)CC1 (stereo not drawn) |
| 7.1 | 0.51 | 47 | 4.1 | NC1CCC(CC2CCC(N(C/C(Cl)=C/c3ccccc3)C(=O)CCCc3c[nH]c4ccccc34)CC2)CC1 (stereo in doubt; form 1) |
| 80 | 3.6 | 9.1 | 4.4 | NC1CCC(CC2CCC(N(Cc3ccccc3Br)C(=O)CCCc3c[nH]c4ccccc34)CC2)CC1 (stereo not drawn) |
| 23 | 1.1 | 15 | 1.9 | NC1CCC(CC2CCC(N(Cc3c(F)cccc3Cl)C(=O)CCCc3c(Cc4ccc(O)cc4)[nH]c4ccccc34)CC2)CC1 (stereo not drawn) |
| 27 | 1.6 | 22 | 5.3 | NC1CCC(CC2CCC(N(Cc3c(Cl)cccc3Cl)C(=O)CCCc3c(Cc4ccc(O)cc4)[nH]c4ccccc34)CC2)CC1 (stereo not drawn) |
| 12 | 2.6 | 11 | 16 | CC(c1ccc(C(F)(F)F)cc1)N(CCCCCN)C(=O)Cc1c[nH]c2ccccc12 (stereo not drawn) |
| 33 | 6.8 | 34 | 25 | CCN(CC)c1ccc(CN(CCCCCN)C(=O)CCCc2c[nH]c3ccccc23)cc1 |
| 47 | 12 | 7.9 | 77 | NCCCCCN(CCCc1ccccc1)C(=O)Cc1c[nH]c2ccccc12 |
| 19 | 1.5 | 2.6 | 3.4 | N=C(N)NC1CCC(CC2CCC(N(Cc3ccccc3)C(=O)CCCc3c[nH]c4ccccc34)CC2)CC1 (stereo not drawn) |
| 30 | 1.8 | 56 | 7.1 | COc1ccc2c(c1)c(CC(=O)N(CCCCN)C/C(C)=C/c1ccccc1)c(C)n2C(=O)c1ccc(Cl)cc1 |
| 23 | 3.5 | 37 | 38 | N=C(N)NC1CCC(CC2CCC(N(C/C=C/c3ccccc3)C(=O)CCCc3c[nH]c4ccccc34)CC2)CC1 (stereo not drawn) |
| 18 | 3.9 | 20 | 14 | NCCCCCN(Cc1ccccc1)C(=O)[C@H](N)Cc1ccc(-c2ccccc2)cc1 |
| 94 | 0.94 | 18 | 1.3 | COc1cc(Br)c(/C=C/CN(C(=O)CCCc2c(Cc3ccc(O)cc3)[nH]c3ccccc23)C2CCC(CC3CCC(N)CC3)CC2)cc1OC (stereo not drawn) |
| 31 | 1.3 | 5 | 2.1 | CC1CC(CC2CCC(N(Cc3ccccc3)C(=O)CCCc3c[nH]c4ccccc34)C(C)C2)CCC1N (stereo in doubt; form 5) |
| 64 | 5.6 | 9.1 | 7.7 | CC1CC(CC2CCC(N(C/C(Cl)=C/c3ccccc3)C(=O)CCCc3c[nH]c4ccccc34)C(C)C2)CCC1N (stereo in doubt; form 1) |

Reference: ChEMBL document CHEMBL1149662, “Design and synthesis of a library of tertiary amides: evaluation as mimetics of the melanocortins' active core” (Bioorg Med Chem, 2007)
